Measured values published in paper PMC12863195 (2026).
Blank lines part the entries; values can stand above or below the molecule they belong to.

Key:
[1] = test system: R1 (MG RNA aptamer) (RNA, aptamer) GGAUCCCGACUGGCGAGAGCCAGGUAACGAAUGGAUCC; test: fluorescence (ex 632 nm, em 650 nm); details: Mg2+ 20 mM (MgCl2); 1×RNAPol reaction buffer, 5 mM DTT, 2 µM MG, 35 °C, during transcription
[2] = test system: Split Ade aptamer – 0nt (d1/t1+d2/t2) (DNA, aptamer) AGGGTGGTGGCGTGCGGAGGAAGGT/ACCTGGGGGAGTATCGCCTAGGTTGGGT; test: ITC; details: Mg2+ 40 mM (MgCl2); 40 mM Tris acetate pH 7.9, 25 °C; one set of sites fit
[3] = test system: Split Ade aptamer – 3nt (Ga/Ha; d1/c/t1+d2/c'/t2) (DNA, aptamer) AGGGTGGTGGCGAACTGCGGAGGAAGGT/ACCTGGGGGAGTATGATCGCCTAGGTTGGGT; test: ITC; details: Mg2+ 40 mM (MgCl2); 40 mM Tris acetate pH 7.9, 25 °C; one set of sites fit
[4] = test system: Na/Ta/Pa (DNA, aptamer) ACCTGGGGGAGTATTAATACGACTCACTATAGGGTTCTCCTCTGCGTTGTTGTTTG/CAAACAACAACGCAGAGGAGAACCCTATAGTGAGTCG/TATTATGCGGAGGAAGGT; test: transcription activation, F/Q strand displacement fluorescence; details: Mg2+ 20 mM (MgCl2); 1×RNAPol reaction buffer, 0.2 µM strands, 0.125-2 mM Ade, 33 °C
[5] = test system: Split Ade aptamer – 3nt (Ga/Ha; d1/c/t1+d2/c'/t2) (DNA, aptamer) AGGGTGGTGGCGAACTGCGGAGGAAGGT/ACCTGGGGGAGTATGATCGCCTAGGTTGGGT; test: stated; ADA-driven loss of thrombin inhibition; details: adenosine 1.25-1.8 mM converted by ADA
[6] = test system: Intact Mel aptamer (DNA, aptamer) GCACACCGATGGCGGTCCTGTTTAGGGGGTGTGC; test: ITC; details: Mg2+ 40 mM (MgCl2); 20 mM Tris acetate pH 7.9, 25 °C; one set of sites fit
[7] = test system: Split Mel aptamer – 0nt (DNA, aptamer) GCACACCGATGGCGGTCCTGT/TTAGGGGGTGTGC; test: ITC; details: Mg2+ 40 mM (MgCl2); 20 mM Tris acetate pH 7.9, 25 °C; poorly defined fit (ΔH -335 ±751 kJ/mol)
[8] = test system: Split Mel aptamer – 4nt (DNA, aptamer) GCACACCGATGGCGGTCCTGTAGGT/ACCTTTAGGGGGTGTGC; test: ITC; details: Mg2+ 40 mM (MgCl2); 20 mM Tris acetate pH 7.9, 25 °C; one set of sites fit
[9] = test system: Gm/Hm (DNA, aptamer) AGGGTGGTGGCGAAAGCACACCGATGGCGGTCCTGTAGGT/ACCTTTAGGGGGTGTGCAAACGCCTAGGTTGGGT; test: thrombin coagulation inhibition, light scattering; details: 1 µM Gm/Hm, 5 nM thrombin, 10 mg/ml fibrinogen, 10-1000 µM Mel, 25 °C
[10] = test system: Nm/Tm/Pm (DNA, aptamer) TAATACGACTCACTATAGGGATCCCGACTGGCGAGAGCCAGGTAACGAATGGATCC/GGATCCATTCGTTACCTGGCTCTCGCCAGTCGGGATCCCTATAGTGAGTCTTAGGGGGTGTGC/GCACACCGATGGCGGTCCTGTGTATTA; test: transcription activation, MG aptamer fluorescence; details: Mg2+ 20 mM (MgCl2); 1×RNAPol reaction buffer, 0.2 µM strands, 0.125-2 mM Mel, 35 °C
[11] = test system: Dm/Em (DNA, aptamer) CTGTTCAGCGATGCACACCGATGGCGGTCCTGTAGGT/ACCTTTAGGGGGTGTGCCACCCATGTTCCTGA; test: DNAzyme cleavage of FAM/BHQ1 substrate, fluorescence; details: Mg2+ 40 mM (MgCl2); apparent; 20 mM Tris acetate pH 7.9, 1 µM each strand, 1 µM substrate S, BSA

binding [1]: yes
Compound: CN(C)c1ccc(C(=C2C=CC(=[N+](C)C)C=C2)c2ccccc2)cc1

Kd [2]: 14.1 ± 1.3 µM
Kd [3]: 7.28 ± 0.82 µM
binding [4]: yes
Compound: Nc1ncnc2c1ncn2[C@@H]1O[C@H](CO)[C@@H](O)[C@H]1O

binding [5]: no
Compound: O=c1[nH]cnc2c1ncn2[C@@H]1O[C@H](CO)[C@@H](O)[C@H]1O

Kd [6]: 0.800 ± 0.139 µM
Kd [7]: 11.1 ± 2.09 µM
Kd [8]: 0.890 ± 0.123 µM
binding [9]: yes
binding [10]: yes
K0.5 [11]: 162 ± 4.8 µM
Compound: Nc1nc(N)nc(N)n1
